Results published in ChEMBL document CHEMBL2413072, “Synthesis and in vitro anticancer studies of novel C-2 arylidene congeners of lantadenes” (2013).

How the values were obtained:
Assay type in all cases: functional
HT-29 [1] = assay: Growth inhibition of human HT-29 cells by sulforhodamine B assay
SK-OV-3 [2] = assay: Growth inhibition of human SKOV3 cells assessed as cell growth at 10^-4 M by sulforhodamine B assay; details: read-out: Activity
CCRF-CEM = assay: Growth inhibition of human CCRF-CEM cells assessed as cell growth at 10^-8 M by sulforhodamine B assay; details: read-out: Activity
K562 [3] = assay: Growth inhibition of human K562 cells assessed as cell growth at 10^-4 M by sulforhodamine B assay; details: read-out: Activity
MDA-MB-435 = assay: Growth inhibition of human MDA-MB-435 cells assessed as cell growth at 10^-8 M by sulforhodamine B assay; details: read-out: Activity
K562 [4] = assay: Growth inhibition of human K562 cells by sulforhodamine B assay
HCT-116 [5] = assay: Growth inhibition of human HCT116 cells assessed as cell growth at 10^-6 M by sulforhodamine B assay; details: read-out: Activity
MDA-MB-468 [6] = assay: Growth inhibition of human MDA-MB-468 cells assessed as cell growth at 10^-7 M by sulforhodamine B assay; details: read-out: Activity
SK-MEL-28 = assay: Growth inhibition of human SK-MEL-28 cells by sulforhodamine B assay
HOP-92 = assay: Growth inhibition of human HOP92 cells assessed as cell growth at 10^-4 M by sulforhodamine B assay; details: read-out: Activity
SR = assay: Growth inhibition of human SR cells assessed as cell growth at 10^-7 M by sulforhodamine B assay; details: read-out: Activity
OVCAR-3 = assay: Growth inhibition of human OVCAR3 cells assessed as cell growth at 10^-8 M by sulforhodamine B assay; details: read-out: Activity
SK-MEL-5 = assay: Growth inhibition of human SK-MEL-5 cells by sulforhodamine B assay
ACHN [7] = assay: Growth inhibition of human ACHN cells assessed as cell growth at 10^-8 M by sulforhodamine B assay; details: read-out: Activity
MDA-MB-468 [8] = assay: Growth inhibition of human MDA-MB-468 cells assessed as cell growth at 10^-4 M by sulforhodamine B assay; details: read-out: Activity
CAKI-1 = assay: Growth inhibition of human CAKI-1 cells assessed as cell growth at 10^-8 M by sulforhodamine B assay; details: read-out: Activity
OVCAR-4 [9] = assay: Growth inhibition of human OVCAR4 cells by sulforhodamine B assay
ACHN [10] = assay: Growth inhibition of human ACHN cells assessed as cell growth at 10^-7 M by sulforhodamine B assay; details: read-out: Activity
SW-620 = assay: Growth inhibition of human SW620 cells by sulforhodamine B assay
SK-OV-3 [11] = assay: Growth inhibition of human SKOV3 cells assessed as cell growth at 10^-6 M by sulforhodamine B assay; details: read-out: Activity
DU-145 = assay: Growth inhibition of human DU145 cells by sulforhodamine B assay
TK-10 = assay: Growth inhibition of human TK10 cells by sulforhodamine B assay
A498 [12] = assay: Growth inhibition of human A498 cells assessed as cell growth at 10^-7 M by sulforhodamine B assay; details: read-out: Activity
HOP-62 = assay: Growth inhibition of human HOP62 cells assessed as cell growth at 10^-4 M by sulforhodamine B assay; details: read-out: Activity
NCI-H226 = assay: Growth inhibition of human NCI-H226 cells assessed as cell growth at 10^-6 M by sulforhodamine B assay; details: read-out: Activity
HCT-116 [13] = assay: Growth inhibition of human HCT116 cells assessed as cell growth at 10^-4 M by sulforhodamine B assay; details: read-out: Activity
A498 [14] = assay: Growth inhibition of human A498 cells assessed as cell growth at 10^-8 M by sulforhodamine B assay; details: read-out: Activity
MCF7 = assay: Growth inhibition of human MCF7 cells by sulforhodamine B assay
BT-549 = assay: Growth inhibition of human BT549 cells assessed as cell growth at 10^-7 M by sulforhodamine B assay; details: read-out: Activity
SK-MEL-2 [15] = assay: Growth inhibition of human SK-MEL-2 cells by sulforhodamine B assay
COLO 205 = assay: Growth inhibition of human COLO205 cells assessed as cell growth at 10^-6 M by sulforhodamine B assay; details: read-out: Activity
HT-29 [16] = assay: Growth inhibition of human HT-29 cells assessed as cell growth at 10^-7 M by sulforhodamine B assay; details: read-out: Activity
SF-268 = assay: Growth inhibition of human SF268 cells assessed as cell growth at 10^-4 M by sulforhodamine B assay; details: read-out: Activity
OVCAR-4 [17] = assay: Growth inhibition of human OVCAR4 cells assessed as cell growth at 10^-7 M by sulforhodamine B assay; details: read-out: Activity
LOX IMVI = assay: Growth inhibition of human LOXIMVI cells assessed as cell growth at 10^-7 M by sulforhodamine B assay; details: read-out: Activity
OVCAR-4 [18] = assay: Growth inhibition of human OVCAR4 cells assessed as cell growth at 10^-6 M by sulforhodamine B assay; details: read-out: Activity
SK-MEL-2 [19] = assay: Growth inhibition of human SK-MEL-2 cells assessed as cell growth at 10^-4 M by sulforhodamine B assay; details: read-out: Activity
M14 = assay: Growth inhibition of human M14 cells by sulforhodamine B assay
[20] = read-out: LC50 (the source's name)
[21] = read-out: pLC50 (the source's name) (converted)

Question: Which results are given for `C/C=C(/C)C(=O)O[C@@H]1CC(C)(C)C[C@H]2C3=CC[C@@H]4[C@@]5(C)CCC(=O)C(C)(C)[C@@H]5CC[C@@]4(C)[C@]3(C)CC[C@@]12C(=O)O` [LANTADENE A]?
Answer: GI50 (HT-29 [1]; read-out: GI50): 4.32 µM; LC50 (50% cell kill) (HT-29 [1]; read-out: LC50): > 100 µM; TGI (HT-29 [1]; read-out: TGI): > 100 µM; GI50 (HT-29 [1]; read-out: pGI50 (converted)): 4.37 µM; LC50 (50% cell kill) (HT-29 [1]; read-out: pLC50 (converted)): > 100 µM; TGI (HT-29 [1]; read-out: pTGI (converted)): > 100 µM; growth at 100 µM (SK-OV-3 [2]): 32%; growth at 0.01 µM (CCRF-CEM): 98%; growth at 100 µM (K562 [3]): 28%; growth at 0.01 µM (MDA-MB-435): 96%; GI50 (K562 [4]; read-out: GI50): 4.72 µM; LC50 (K562 [4]; read-out: LC50): > 100 µM; TGI (K562 [4]; read-out: TGI): > 100 µM; GI50 (K562 [4]; read-out: pGI50 (converted)): 4.68 µM; LC50 (K562 [4]; read-out: pLC50 (converted)): > 100 µM; TGI (K562 [4]; read-out: pTGI (converted)): > 100 µM; growth at 1 µM (HCT-116 [5]): 86%; growth at 0.1 µM (MDA-MB-468 [6]): 83%; GI50 (SK-MEL-28; read-out: GI50): 12.8 µM; CC50 (SK-MEL-28; [20]): > 100 µM; TGI (SK-MEL-28; read-out: TGI): > 100 µM; GI50 (SK-MEL-28; read-out: pGI50 (converted)): 12.9 µM; CC50 (SK-MEL-28; [21]): > 100 µM; TGI (SK-MEL-28; read-out: pTGI (converted)): > 100 µM; growth at 100 µM (HOP-92): -35%; growth at 0.1 µM (SR): 79%; growth at 0.01 µM (OVCAR-3): 109%; GI50 (SK-MEL-5; read-out: GI50): 1.22 µM; CC50 (SK-MEL-5; [20]): > 100 µM; TGI (SK-MEL-5; read-out: TGI): 4.3 µM; GI50 (SK-MEL-5; read-out: pGI50 (converted)): 1.23 µM; CC50 (SK-MEL-5; [21]): > 100 µM; TGI (SK-MEL-5; read-out: pTGI (converted)): 4.27 µM; growth at 0.01 µM (ACHN [7]): 110%; growth at 100 µM (MDA-MB-468 [8]): 1%; growth at 0.01 µM (CAKI-1): 96%; GI50 (OVCAR-4 [9]; read-out: GI50): 5.64 µM; CC50 (OVCAR-4 [9]; [20]): > 100 µM; TGI (OVCAR-4 [9]; read-out: TGI): > 100 µM; GI50 (OVCAR-4 [9]; read-out: pGI50 (converted)): 5.62 µM; CC50 (OVCAR-4 [9]; [21]): > 100 µM; TGI (OVCAR-4 [9]; read-out: pTGI (converted)): > 100 µM; growth at 0.1 µM (ACHN [10]): 107%; GI50 (SW-620; read-out: GI50): 4.48 µM; CC50 (SW-620; [20]): > 100 µM; TGI (SW-620; read-out: TGI): > 100 µM; GI50 (SW-620; read-out: pGI50 (converted)): 4.47 µM; CC50 (SW-620; [21]): > 100 µM; TGI (SW-620; read-out: pTGI (converted)): > 100 µM; growth at 1 µM (SK-OV-3 [11]): 103%; GI50 (DU-145; read-out: GI50): 5.92 µM; CC50 (DU-145; [20]): > 100 µM; TGI (DU-145; read-out: TGI): > 100 µM; GI50 (DU-145; read-out: pGI50 (converted)): 5.89 µM; CC50 (DU-145; [21]): > 100 µM; TGI (DU-145; read-out: pTGI (converted)): > 100 µM; GI50 (TK-10; read-out: GI50): 5.37 µM; CC50 (TK-10; [20]): > 100 µM; TGI (TK-10; read-out: TGI): > 100 µM; GI50 (TK-10; read-out: pGI50 (converted)): 5.37 µM; CC50 (TK-10; [21]): > 100 µM; TGI (TK-10; read-out: pTGI (converted)): > 100 µM; growth at 0.1 µM (A498 [12]): 86%; growth at 100 µM (HOP-62): 26%; growth at 1 µM (NCI-H226): 87%; growth at 100 µM (HCT-116 [13]): 11%; growth at 0.01 µM (A498 [14]): 83%; GI50 (MCF7; read-out: GI50): 3.6 µM; CC50 (MCF7; [20]): > 100 µM; TGI (MCF7; read-out: TGI): > 100 µM; GI50 (MCF7; read-out: pGI50 (converted)): 3.63 µM; CC50 (MCF7; [21]): > 100 µM; TGI (MCF7; read-out: pTGI (converted)): > 100 µM; growth at 0.1 µM (BT-549): 95%; GI50 (SK-MEL-2 [15]; read-out: GI50): 3.07 µM; CC50 (SK-MEL-2 [15]; [20]): > 100 µM; TGI (SK-MEL-2 [15]; read-out: TGI): 8.07 µM; GI50 (SK-MEL-2 [15]; read-out: pGI50 (converted)): 3.09 µM; CC50 (SK-MEL-2 [15]; [21]): > 100 µM; TGI (SK-MEL-2 [15]; read-out: pTGI (converted)): 8.13 µM; growth at 1 µM (COLO 205): 101%; growth at 0.1 µM (HT-29 [16]): 101%; growth at 100 µM (SF-268): 34%; growth at 0.1 µM (OVCAR-4 [17]): 95%; growth at 0.1 µM (LOX IMVI): 95%; growth at 1 µM (OVCAR-4 [18]): 86%; growth at 100 µM (SK-MEL-2 [19]): -35%; GI50 (M14; read-out: GI50): 4.53 µM; CC50 (M14; [20]): > 100 µM; TGI (M14; read-out: TGI): > 100 µM; GI50 (M14; read-out: pGI50 (converted)): 4.57 µM; CC50 (M14; [21]): > 100 µM; TGI (M14; read-out: pTGI (converted)): > 100 µM
